Measured values from the NIST ThermoML archive (doi:10.1016/j.jct.2013.10.028).
Numbers after ± are expanded uncertainties.

How the values were obtained:
[1] = molar heat capacity at constant pressure; wn = mass fraction of the nth substance listed; conditions: 100 kPa, Liquid, Large sample (1 g) DSC
[2] = molar heat capacity at constant pressure; conditions: 100 kPa, Liquid, Large sample (1 g) DSC

[Cl-].[Li+] [lithium chloride] + O
molar heat capacity at constant pressure [J/K/mol], [1]
Conditions | 308.15 K | 313.15 K | 318.15 K | 323.15 K | 328.15 K | 333.15 K | 338.15 K | 343.15 K
w1 = 0.15 | 68.89 ± 2.9 | 68.97 ± 2.9 | 69.06 ± 2.9 | 69.18 ± 2.9 | 69.28 ± 2.9 | 69.36 ± 2.9 | 69.36 ± 2.9 | 69.42 ± 2.9
w1 = 0.2001 | 67.4 ± 2.9 | 67.55 ± 2.9 | 67.65 ± 2.9 | 67.79 ± 2.9 | 67.93 ± 2.9 | 68.02 ± 2.9 | 68.08 ± 2.9 | 68.06 ± 2.9
w1 = 0.2501 | 66.11 ± 2.8 | 66.26 ± 2.8 | 66.43 ± 2.8 | 66.6 ± 2.8 | 66.76 ± 2.8 | 66.93 ± 2.8 | 67.02 ± 2.8 | 67.12 ± 2.8
w1 = 0.3 | 65.14 ± 2.8 | 65.44 ± 2.8 | 65.66 ± 2.8 | 65.9 ± 2.8 | 66.14 ± 2.8 | 66.34 ± 2.8 | 66.49 ± 2.8 | 66.58 ± 2.8
w1 = 0.3499 | 64.84 ± 2.8 | 65.16 ± 2.8 | 65.4 ± 2.8 | 65.65 ± 2.8 | 65.92 ± 2.8 | 66.15 ± 2.8 | 66.33 ± 2.8 | 66.49 ± 2.8
w1 = 0.3998 | 64.57 ± 2.7 | 64.89 ± 2.8 | 65.17 ± 2.8 | 65.48 ± 2.8 | 65.78 ± 2.8 | 66.04 ± 2.8 | 66.25 ± 2.8 | 66.39 ± 2.8
w1 = 0.4502 | 64.39 ± 2.7 | 64.76 ± 2.7 | 65.05 ± 2.8 | 65.37 ± 2.8 | 65.68 ± 2.8 | 65.95 ± 2.8 | 66.17 ± 2.8 | 66.34 ± 2.8

O [water]
[2]
Conditions | molar heat capacity at constant pressure [J/K/mol]
308.15 K | 75.47 ± 3.2
313.15 K | 75.43 ± 3.2
318.15 K | 75.41 ± 3.2
323.15 K | 75.43 ± 3.2
328.15 K | 75.45 ± 3.2
333.15 K | 75.47 ± 3.2
338.15 K | 75.47 ± 3.2
343.15 K | 75.47 ± 3.2
